In this test the test system is HEK293 cells cotransfected with the FOP control vector. The test can be described thus: HEK293 FOP assay (control reporter with non-functional TCF elements). The format is cell-based. As to conditions: Homo sapiens, 16 hours. In short, it runs like this: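 Stable HEK293 line carrying FOP control reporter (randomized non-functional TCF sites, with pcDNA3), Geneticin-selected, plated 24 h before assay. Stimulated with recombinant human Wnt-3a (2500-5 ng/ml) and compounds 50 μM–15 nM (3.16-fold steps) in CAFTY buffer pH 7.4 with 2 mM Ca2+, 0.01% BSA, run parallel to TOP line.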

For 29 compounds, IC50 results are on record in patent publication US20180148418A1, “AMIDO-SUBSTITUTED CYCLOHEXANE DERIVATIVES” (Bayer Pharma Aktiengesellschaft, priority 2015, published 2018).

As usually defined, the IC50 is the midpoint of a concentration-inhibition curve. The low end stands for greater potency in that assay, the high end for weaker potency in that assay.

Counter-ions that a name gives are not always drawn. Where only a bound is given, the exact number is not on record here.

Regarding `Cc1cc(C)n2ncc(C(=O)N[C@H]3CC[C@]4(CCN(c5ccc(F)cc5)C4=O)CC3)c2n1` [Example 208, N-[(cis)-2-(4-fluorophenyl)-1-oxo-2-azaspiro[4.5]dec-8-yl]-5,7-dimethyl pyrazolo[1,5-a]pyrimidine-3-carboxamide], the IC50 is not below 50 µM. The figure for `O=C(N[C@H]1CC[C@@]2(CCN(c3ccc(F)cc3)C2=O)CC1)c1cnn2cccnc12` [Example 209, N-[(trans)-2-(4-fluorophenyl)-1-oxo-2-azaspiro[4.5]dec-8-yl]pyrazolo[1,5-a]pyrimidine-3-carboxamide] is not below 50 µM. The compound `Cc1cnc2c(C(=O)N[C@H]3CC[C@@]4(CCN(c5ccc(F)cc5)C4=O)CC3)cnn2c1` [Example 210, N-[(trans)-2-(4-fluorophenyl)-1-oxo-2-azaspiro[4.5]dec-8-yl]-6-methylpyrazolo[1,5-a]pyrimidine-3-carboxamide] gave an IC50 of 25 µM. As for `Cc1cc(C)n2ncc(C(=O)N[C@H]3CC[C@@]4(CCN(c5ccc(F)cc5)C4=O)CC3)c2n1` [Example 211, N-[(trans)-2-(4-fluorophenyl)-1-oxo-2-azaspiro[4.5]dec-8-yl]-5,7-di methyl pyrazolo[1,5-a]pyrimidine-3-carboxamide], half-maximal inhibition (IC50) was put at 25 µM. Compound `CNC(=O)c1[nH]cnc1C(=O)N[C@H]1CC[C@@]2(CCN(c3ccc(F)cc3)C2=O)CC1` [Example 212, N^4-[(trans)-2-(4-fluorophenyl)-1-oxo-2-azaspiro[4.5]dec-8-yl]-N^5-methyl-1H-imidazole-4,5-dicarboxamide] yielded a half-inhibitory concentration (IC50) of 38 µM.

`CCNC(=O)c1[nH]cnc1C(=O)N[C@H]1CC[C@@]2(CCN(c3ccc(F)cc3)C2=O)CC1` [Example 213, N^5-ethyl-N^4-[(trans)-2-(4-fluorophenyl)-1-oxo-2-azaspiro[4.5]dec-8-yl]-1H-imidazole-4,5-dicarboxamide]: the IC50 worked out at 30 µM.

With `O=C(N[C@H]1CC[C@@]2(CCN(c3ccc(F)cc3Cl)C2=O)CC1)c1cnn2cc(CCO)cnc12` [Example 214, N-[(trans)-2-(2-chloro-4-fluorophenyl)-1-oxo-2-azaspiro[4.5]dec-8-yl]-6-(2-hydroxyethyl)pyrazolo[1,5-a]pyrimidine-3-carboxamide], the IC50 is not below 50 µM.

With `CNc1ccn2ncc(C(=O)N[C@H]3CC[C@@]4(CCN(c5ccc(F)cc5Cl)C4=O)CC3)c2n1` [Example 215, N-[(trans)-2-(2-chloro-4-fluorophenyl)-1-oxo-2-azaspiro[4.5]dec-8-yl]-5-(methylamino)pyrazolo[1,5-a]pyrimidine-3-carboxamide], the IC50 was not below 50 µM. Take `Cc1nn2cccnc2c1C(=O)N[C@H]1CC[C@@]2(CCN(c3ccc(F)cc3Cl)C2=O)CC1` [Example 216, N-[(trans)-2-(2-chloro-4-fluorophenyl)-1-oxo-2-azaspiro[4.5]dec-8-yl]-2-methylpyrazolo[1,5-a]pyrimidine-3-carboxamide]: the IC50 is not below 50 µM. On to `CN(C)c1ccn2ncc(C(=O)N[C@H]3CC[C@@]4(CCN(c5ccc(F)cc5Cl)C4=O)CC3)c2n1` [Example 217, N-[(trans)-2-(2-chloro-4-fluorophenyl)-1-oxo-2-azaspiro[4.5]dec-8-yl]-5-(dimethylamino)pyrazolo[1,5-a]pyrimidine-3-carboxamide], for which the IC50 was not below 50 µM. On to `COc1ccn2ncc(C(=O)N[C@H]3CC[C@@]4(CCN(c5ccc(F)cc5Cl)C4=O)CC3)c2n1` [Example 218, N-[(trans)-2-(2-chloro-4-fluorophenyl)-1-oxo-2-azaspiro[4.5]dec-8-yl]-5-methoxypyrazolo[1,5-a]pyrimidine-3-carboxamide], for which the IC50 is not below 50 µM. `Cc1ccn2ncc(C(=O)N[C@H]3CC[C@@]4(CCN(c5ccc(F)cc5Cl)C4=O)CC3)c2n1` [Example 221, N-[(trans)-2-(2-chloro-4-fluorophenyl)-1-oxo-2-azaspiro[4.5]dec-8-yl]-5-methylpyrazolo[1,5-a]pyrimidine-3-carboxamide] had a half-maximal inhibitory concentration (IC50) of 18 µM. As for `Cc1ccnc2c(C(=O)N[C@H]3CC[C@@]4(CCN(c5ccc(F)cc5Cl)C4=O)CC3)cnn12` [Example 222, N-[(trans)-2-(2-chloro-4-fluorophenyl)-1-oxo-2-azaspiro[4.5]dec-8-yl]-7-methylpyrazolo[1,5-a]pyrimidine-3-carboxamide], the IC50 was not below 50 µM. Regarding `Cc1cc(C(F)F)n2ncc(C(=O)N[C@H]3CC[C@@]4(CCN(c5ccc(F)cc5Cl)C4=O)CC3)c2n1` [Example 224, N-[(trans)-2-(2-chloro-4-fluorophenyl)-1-oxo-2-azaspiro[4.5]dec-8-yl]-7-(difluoromethyl)-5-methylpyrazolo[1,5-a]pyrimidine-3-carboxamide], the IC50 was not below 50 µM. As for `CC(C)(C)OC(=O)N1CCN(c2ccn3ncc(C(=O)N[C@H]4CC[C@@]5(CCN(c6ccc(F)cc6Cl)C5=O)CC4)c3n2)CC1` [Example 225, tert-butyl 4-(3-{[(trans)-2-(2-chloro-4-fluorophenyl)-1-oxo-2-azaspiro[4.5]dec-8-yl]carbamoyl}pyrazolo[1,5-a]pyrimidin-5-yl)piperazine-1-carboxylate], the IC50 is not below 50 µM.

In turn, `O=C(N[C@H]1CC[C@@]2(CCN(c3ccc(F)cc3Cl)C2=O)CC1)c1cnn2ccc(N3CCNCC3)nc12` [Example 226, N-[(trans)-2-(2-chloro-4-fluorophenyl)-1-oxo-2-azaspiro[4.5]dec-8-yl]-5-(piperazin-1-yl)pyrazolo[1,5-a]pyrimidine-3-carboxamide hydrochloric acid salt] displayed an IC50 not below 0.5 µM. Turning to `O=C(N[C@H]1CC[C@@]2(CCN(c3ccc(F)cc3Cl)C2=O)CC1)c1cnn2ccc(N3CCCC3)nc12` [Example 232, N-[(trans)-2-(2-chloro-4-fluorophenyl)-1-oxo-2-azaspiro[4.5]dec-8-yl]-5-(pyrrolidin-1-yl)pyrazolo[1,5-a]pyrimidine-3-carboxamide], the IC50 was not below 50 µM.

For `O=C(N[C@H]1CC[C@@]2(CCN(c3ccc(F)cc3Cl)C2=O)CC1)c1cnn2c(C(F)(F)F)ccnc12` [Example 233, N-[(trans)-2-(2-chloro-4-fluorophenyl)-1-oxo-2-azaspiro[4.5]dec-8-yl]-7-(trifluoromethyl)pyrazolo[1,5-a]pyrimidine-3-carboxamide], the half-inhibitory concentration (IC50) was not below 50 µM. The figure for `O=C(N[C@H]1CC[C@@]2(CCN(c3ccccc3Cl)C2=O)CC1)c1cnn2cccnc12` [Example 256, N-[(trans)-2-(2-chlorophenyl)-1-oxo-2-azaspiro[4.5]dec-8-yl]pyrazolo[1,5-a]pyrimidine-3-carboxamide] is not below 50 µM; for `Cc1cc(C)n2ncc(C(=O)N[C@H]3CC[C@@]4(CCN(c5ccccc5Cl)C4=O)CC3)c2n1` [Example 257, N-[(trans)-2-(2-chlorophenyl)-1-oxo-2-azaspiro[4.5]dec-8-yl]-5,7-dimethylpyrazolo[1,5-a]pyrimidine-3-carboxamide] it is not below 50 µM; for `CCNC(=O)c1nc[nH]c1C(=O)N[C@H]1CC[C@@]2(CCN(c3ccccc3Cl)C2=O)CC1` [Example 258, N^5-[(trans)-2-(2-chlorophenyl)-1-oxo-2-azaspiro[4.5]dec-8-yl]-N^4-ethyl-1H-imidazole-4,5-dicarboxamide] it is not below 50 µM.

With `COCCNC(=O)c1nc[nH]c1C(=O)N[C@H]1CC[C@@]2(CCN(c3ccccc3Cl)C2=O)CC1` [Example 259, N^5-[(trans)-2-(2-chlorophenyl)-1-oxo-2-azaspiro[4.5]dec-8-yl]-N^4-(2-methoxyethyl)-1H-imidazole-4,5-dicarboxamide], the IC50 was not below 50 µM. The figure for `CC1CCN(CCNC(=O)c2nc[nH]c2C(=O)N[C@H]2CC[C@@]3(CCN(c4ccccc4Cl)C3=O)CC2)CC1` [Example 260, N^5-[(trans)-2-(2-chlorophenyl)-1-oxo-2-azaspiro[4.5]dec-8-yl]-N^4-[2-(4-methylpiperidin-1-yl)ethyl]-1H-imidazole-4,5-dicarboxamide] is not below 50 µM; for `CNC(=O)c1nc[nH]c1C(=O)N[C@H]1CC[C@@]2(CCN(c3ccccc3Cl)C2=O)CC1` [Example 264, N^5-[(trans)-2-(2-chlorophenyl)-1-oxo-2-azaspiro[4.5]dec-8-yl]-N^4-methyl-1H-imidazole-4,5-dicarboxamide] it is 33 µM; for `Cc1cc(N2CC[C@]3(CC[C@@H](NC(=O)c4cnc5cccnn45)CC3)C2=O)c(Cl)cc1F` [Example 265, N-[(trans)-2-(2-chloro-4-fluoro-5-methylphenyl)-1-oxo-2-azaspiro[4.5]dec-8-yl]imidazo[1,2-b]pyridazine-3-carboxamide] it is not below 50 µM. The figure for `Cc1cc(C)n2ncc(C(=O)N[C@H]3CC[C@@]4(CCN(c5cc(C)c(F)cc5Cl)C4=O)CC3)c2n1` [Example 266, N-[(trans)-2-(2-chloro-4-fluoro-5-methylphenyl)-1-oxo-2-azaspiro[4.5]dec-8-yl]-5,7-dimethylpyrazolo[1,5-a]pyrimidine-3-carboxamide] is not below 50 µM; for `Cc1cc(N2CC[C@]3(CC[C@@H](NC(=O)c4cnn5cccnc45)CC3)C2=O)c(Cl)cc1F` [Example 267, N-[(trans)-2-(2-chloro-4-fluoro-5-methylphenyl)-1-oxo-2-azaspiro[4.5]dec-8-yl]pyrazolo[1,5-a]pyrimidine-3-carboxamide] it is not below 50 µM. The compound `O=C(N[C@H]1CC[C@@]2(CCN(c3cccc(Cl)c3)C2=O)CC1)c1cnn2cccnc12` [Example 268, N-[(trans)-2-(3-chlorophenyl)-1-oxo-2-azaspiro[4.5]dec-8-yl]pyrazolo[1,5-a]pyrimidine-3-carboxamide] showed an IC50 not below 50 µM. Regarding `O=C(N[C@H]1CC[C@@]2(CCN(c3cccc(Cl)c3)C2=O)CC1)c1cnc2cccnn12` [Example 269, N-[(trans)-2-(3-chlorophenyl)-1-oxo-2-azaspiro[4.5]dec-8-yl]imidazo[1,2-b]pyridazine-3-carboxamide], the IC50 was not below 50 µM.
